Several values for one entry are separate records, joined by “and”; a condition that tells them apart may be missing. Equal entries are not always repeated. Where two headings read alike, the source gives them in different places.
Legend:
[1] = log P determination by HPLC on reversed-phase columns (C 18), analogous to OECD Guideline 117; assay type: physicochemical; conditions: for logP[a]: method [a]; for logP[b]: method [b]; for chromatographic logP: reversed-phase HPLC column (C 18)
Procedure: The log P values were determined analogously to OECD Guideline 117 (EC Directive 92/69/EEC) by HPLC (high-performance liquid chromatography) using reversed-phase columns (C 18), by the following methods: [a] The LC-MS determination in the acidic range was effected at pH 2.7 with 0.1% aqueous formic acid and acetonitrile (contains 0.1% formic acid) as eluents; linear gradient from 10% acetonitrile to 95% acetonitrile. log P[a] is also referred to as log P(HCOOH). [b] LC-MS determination in the neutral range was effected at pH 7.8 with 0.001 molar aqueous ammonium hydrogencarbonate solution and acetonitrile as eluents; linear gradient from 10% acetonitrile to 95% acetonitrile. log P[b] is also referred to as log P(neutral). Calibration is effected with solutions of a homologous series of unbranched alkan-2-ones (having 3 to 16 carbon atoms) with known log P values (log P values determined on the basis of the retention times by linear interpolation between two successive alkanones).

[2] = test system: Boophilus microplus; experiment: Boophilus microplus - injection test; assay type: in vivo; conditions: 20 μg/animal, injection into engorged adult female cattle ticks, assessed after 7 days
Procedure: 1. Boophilus microplus—Injection Test
Solvent: dimethyl sulphoxide
To produce a suitable preparation of active compound, 10 mg of active compound are mixed with 0.5 ml of solvent and the concentrate is diluted with solvent to the desired concentration.
1 μl of the active compound solution is injected into the abdomen of 5 engorged adult female cattle ticks (Boophilus microplus). The animals are transferred into dishes and kept in a climate-controlled room.
Efficacy is assessed after 7 days by laying of fertile eggs. Eggs which are not visibly fertile are stored in a climate-controlled cabinet until the larvae hatch after about 42 days. An efficacy of 100% means that none of the ticks has laid any fertile eggs; 0% means that all the eggs are fertile.

[3] = test system: Tetranychus urticae; experiment: Tetranychus urticae - spray test, OP-resistant (bean leaf discs, 6 days); assay type: in vivo; conditions: 500 g/ha, after 6 days; for pest or weed control at 500 g/ha: Tetranychus urticae, foliar, 144 h, read-out: efficacy (spider mites killed)
Procedure: 5. Tetranychus urticae—Spray Test, OP-Resistant
Solvent: 78.0 parts by weight of acetone
• 1.5 parts by weight of dimethylformamide Emulsifier: alkylaryl polyglycol ether
To produce a suitable preparation of active compound, 1 part by weight of active compound is dissolved using the stated parts by weight of solvent and made up with water containing an emulsifier concentration of 1000 ppm until the desired concentration is attained. To produce further test concentrations, the preparation is diluted with emulsifier-containing water.
Discs of bean leaves (Phaseolus vulgaris) infested with all stages of the greenhouse red spider mite (Tetranychus urticae) are sprayed with an active compound preparation of the desired concentration.
After 6 days, the efficacy in % is determined. 100% means that all the spider mites have been killed; 0% means that no spider mites have been killed.

[4] = test system: Meloidogyne incognita; experiment: Meloidogyne incognita - test; assay type: in vivo; conditions: 20 ppm, lettuce, after 14 days
Procedure: 2. Meloidogyne incognita—Test Solvent: 125.0 parts by weight of acetone To produce a suitable preparation of active compound, 1 part by weight of active compound is mixed with the stated amount of solvent and the concentrate is diluted with water to the desired concentration. Vessels are filled with sand, active compound solution, an egg/larvae suspension of the southern root-knot nematode (Meloidogyne incognita) and lettuce seeds. The lettuce seeds germinate and the plants develop. The galls develop on the roots. After 14 days, the nematicidal efficacy in % is determined by the formation of galls. 100% means that no galls were found; 0% means that the number of galls on the treated plants corresponds to the untreated control.

[5] = pH 2.7, HPLC, acidic range, pH 2.7, 0.1% aqueous formic acid and acetonitrile, read-out: log P(HCOOH)
[6] = pH 2.7, method [a], read-out: logP[a]
[7] = pH 7.8, HPLC, neutral range, pH 7.8, 0.001 molar aqueous ammonium hydrogencarbonate and acetonitrile, read-out: log P(neutral)
[8] = pH 7.8, method [b], read-out: logP[b]

SMILES | logP[a] [1] | logP[b] [1] | efficacy (laying of fertile eggs) [2] [%] | efficacy (spider mites killed) [3] | chromatographic logP [1, 5] | chromatographic logP [1, 6] | chromatographic logP [1, 7] | chromatographic logP [1, 8] | nematicidal efficacy (formation of galls) [4] [%] | pest or weed control at 500 g/ha [3] [%]
Cc1cc(F)c(N2C(=O)C(C)N(C(=O)NCC(F)(F)F)C2=O)cc1[S+]([O-])CC(F)(F)F (mixture of isomers) [compound 88] | 2.75 | 2.71 | 100 | 100% | – | – | – | – | – | –
Cc1cc(F)c(N2C(=O)CN(C(=O)N3CCOCC3)C2=O)cc1SCC(F)(F)F [Ex. No. 122, 3-[2-Fluoro-4-methyl-5-(2,2,2-trifluoroethylsulphanyl)phenyl]-1-(morpholine-4-carbonyl)imidazolidine-2,4-dione] | – | – | – | – | 2.61 | 2.58 | 2.58 | 2.62 | 90 | 100
Cc1cc(F)c(N2C(=O)CN(C(=O)N3CCOCC3)C2=O)cc1[S+]([O-])CC(F)(F)F (stereo not drawn) [Ex. No. 125, 3-[2-Fluoro-4-methyl-5-(2,2,2-trifluoroethylsulphinyl)phenyl]-1-(morpholine-4-carbonyl)imidazolidine-2,4-dione] | – | – | – | – | 1.79 | 1.75 | 1.75 | 1.79 | 100 | 100
Cc1cc(F)c(N2C(=O)CN(C(=O)Nc3cccnc3)C2=O)cc1[S+]([O-])CC(F)(F)F (stereo not drawn) [compound 20] | 1.51 | 1.98 | – | 100% | – | – | – | – | 100 | –
Cc1cc(Cl)c(N2C(=O)CN(C(=O)NC3CC3)C2=O)cc1SCC(F)(F)F [compound 50] | 3.29 | 3.19 | – | 100% | – | – | – | – | 90 | –
Cc1cc(C)c([S+]([O-])CC(F)(F)F)cc1N1C(=O)CN(C(=O)NCC(F)(F)F)C1=O (stereo not drawn) [compound 61] | 2.54 | 2.47 | – | 100% | – | – | – | – | – | –
CCNC(=O)N1CC(=O)N(c2cc([S+]([O-])CC(F)(F)F)c(C)cc2Cl)C1=O (stereo not drawn) [compound 64] | 2.23 | 2.24 | – | 100% | – | – | – | – | – | –
COCCNC(=O)N1CC(=O)N(c2cc(SCC(F)(F)F)c(C)cc2F)C1=O [compound 66] | 2.77 | 2.76 | – | 100% | – | – | – | – | – | –
Cc1cc(F)c(N2C(=O)N(C(=O)NCC(C)C)C(C)(C)C2=O)cc1SCC(F)(F)F [compound 76] | 4.51 | 4.42 | – | 100% and 90% | – | – | – | – | – | –
Cc1cc(F)c(N2C(=O)N(C(=O)NCc3ccccc3)C(C)(C)C2=O)cc1SCC(F)(F)F [compound 77] | 4.37 | 4.33 | – | 100% | – | – | – | – | – | –
Cc1cc(F)c(N2C(=O)CN(C(=O)Nc3ccccn3)C2=O)cc1SCC(F)(F)F [compound 78] | 3.37 | 3.29 | – | 100% | – | – | – | – | 100 | –
Cc1cc(C)c(N2C(=O)CN(C(=O)NCc3ccccc3)C2=O)cc1SCC(F)(F)F [compound 92] | 3.75 | 3.66 | – | 90% | – | – | – | – | – | –
Cc1cc(Cl)c(N2C(=O)CN(C(=O)Nc3ccc(F)cc3)C2=O)cc1SCC(F)(F)F [compound 94] | 4.05 | 3.96 | – | 100% | – | – | – | – | – | –
Cc1cc(F)c(N2C(=O)CN(C(=S)NCC(F)(F)F)C2=O)cc1SCC(F)(F)F [compound 102] | 3.71 | 3.84 | – | 100% | – | – | – | – | – | –
CCNC(=O)N1CC(=O)N(c2cc(SCC(F)(F)F)c(Cl)cc2Cl)C1=O [compound 103] | 3.25 | 3.26 | – | 90% | – | – | – | – | 90 | –
O=C(NC1CC1)N1CC(=O)N(c2cc(SCC(F)(F)F)c(Cl)cc2Cl)C1=O [compound 104] | 3.3 | 3.37 | – | 100% | – | – | – | – | – | –

SMILES | logP[a] [1] | logP[b] [1] | efficacy (laying of fertile eggs) [2] [%] | efficacy (spider mites killed) [3] | chromatographic logP [1, 5] | chromatographic logP [1, 6] | chromatographic logP [1, 7] | chromatographic logP [1, 8] | nematicidal efficacy (formation of galls) [4] [%] | pest or weed control at 500 g/ha [3] [%]
CC(C)CNC(=O)N1CC(=O)N(c2cc(SCC(F)(F)F)c(Cl)cc2Cl)C1=O [compound 105] | 3.91 | 3.99 | – | 100% | – | – | – | – | – | –
O=C(Nc1ccc(F)cc1)N1CC(=O)N(c2cc(SCC(F)(F)F)c(Cl)cc2Cl)C1=O [compound 108] | 4.09 | 4.20 | – | 100% | – | – | – | – | 90 | –
O=C(Nc1cccc(Cl)c1)N1CC(=O)N(c2cc(SCC(F)(F)F)c(Cl)cc2Cl)C1=O [compound 109] | 4.49 | 4.56 | – | 90% | – | – | – | – | – | –
O=C(Nc1cccc(C(F)(F)F)c1)N1CC(=O)N(c2cc(SCC(F)(F)F)c(Cl)cc2Cl)C1=O [compound 110] | 4.56 | 4.61 | – | 100% | – | – | – | – | – | –
Cc1cc(F)c(N2C(=O)CN(C(=O)N(C)C3CC3)C2=O)cc1SCC(F)(F)F [compound 121] | 2.99 | 3.03 | – | 100% | – | – | – | – | 90 | –
Cc1cc(F)c(N2C(=O)CN(C(=O)N3CCN(C)CC3)C2=O)cc1SCC(F)(F)F [compound 123] | 2.5 | 1.51 | – | 100% | – | – | – | – | – | –
Cc1cc(F)c(N2C(=O)CN(C(=O)N(C)CC(C)C)C2=O)cc1[S+]([O-])CC(F)(F)F (stereo not drawn) [compound 126] | 2.6 | 2.66 | – | 100% | – | – | – | – | 100 | –
Cc1cc(F)c(N2C(=O)CN(C(=O)N3CCN(C)CC3)C2=O)cc1[S+]([O-])CC(F)(F)F (stereo not drawn) [compound 127] | 1.72 | 1.61 | – | 100% | – | – | – | – | – | –
Cc1cc(F)c(N2C(=O)CN(C(=O)N3CCS(=O)(=O)CC3)C2=O)cc1SCC(F)(F)F [compound 128] | 2.4 | 2.44 | – | – | – | – | – | – | 100 | –
Cc1cc(F)c(N2C(=O)CN(C(=O)N3CCC(F)(F)CC3)C2=O)cc1SCC(F)(F)F [compound 129] | 3.27 | 3.29 | – | 100% | – | – | – | – | 100 | –
Cc1cc(F)c(N2C(=O)CN(C(=O)N(C)C)C2=O)cc1SCC(F)(F)F [compound 130] | 2.58 | 2.60 | – | 100% and 90% | – | – | – | – | 100 | –
Cc1cc(F)c(N2C(=O)CN(C(=O)N(C)C3CC3)C2=O)cc1[S+]([O-])CC(F)(F)F (stereo not drawn) [compound 131] | 2.08 | 2.16 | – | 100% | – | – | – | – | 100 | –
Cc1cc(F)c(N2C(=O)CN(C(=O)N3CCC(F)(F)CC3)C2=O)cc1[S+]([O-])CC(F)(F)F (stereo not drawn) [compound 132] | 2.41 | 2.46 | – | 90% | – | – | – | – | 100 | –
Cc1cc(F)c(N2C(=O)CN(C(=O)N(C)C)C2=O)cc1[S+]([O-])CC(F)(F)F (stereo not drawn) [compound 133] | 1.75 | 1.78 | – | 100% | – | – | – | – | – | –
Cc1cc(F)c(N2C(=O)CN(C(=O)N3CCS(=O)(=O)CC3)C2=O)cc1[S+]([O-])CC(F)(F)F (stereo not drawn) [compound 134] | 1.66 | 1.69 | – | 90% | – | – | – | – | – | –
